# Test results reported in US11964941B2, “5-Bromo-indirubins” (City of Hope, priority 2014, dated 2024).
# Experiments:
# [1] = target: FLT3 (D835Y) (Homo sapiens, UniProt P36888, D835Y); test: In vitro kinase assay, recombinant FLT3 (D835Y); assay type: biochemical; conditions: 33P-ATP, 120 min
# Protocol: (§1) The kinase assays were performed with recombinant class III receptor tyrosine kinase family proteins. Briefly, proteins, freshly prepared substrates and ^33P-ATP (specific activity 0.01 μCi/μl final) were mixed in reaction buffer (20 mM HEPES pH 7.5, 10 mM MgCl2, 1 mM EGTA, 0.02% Brij35, 0.02 mg/ml BSA, 0.1 mM Na3VO4, 2 mM DTT) in the presence of DMSO as control or 5IN-1NH1s. The mixtures were reacted for 120 min at room temperature. Samples were transferred onto P81 ion exchange paper and filters were extensively washed with 0.75% phosphoric acid. The radioactivities were monitored. IC50 values were determined using GraphPad Prism software.
# as §1, with “Kinase” for “The kinase”, “FLT3, mutated FLT3-ITD and D835I mutant FLT3 kinases.” for “class III receptor tyrosine kinase family proteins.”, “compound (1289).” for “5IN-1NH1s.”
# [2] = target: FLT3 (ITD) (Homo sapiens, UniProt P36888); test: In vitro kinase assay, recombinant FLT3 (ITD); assay type: biochemical; conditions: 33P-ATP, 120 min
# Protocol: as §1
# as §1, with “Kinase” for “The kinase”, “FLT3, mutated FLT3-ITD and D835I mutant FLT3 kinases.” for “class III receptor tyrosine kinase family proteins.”, “compound (1289).” for “5IN-1NH1s.”
# [3] = target: FMS (Homo sapiens, UniProt P07333); test: In vitro kinase assay, recombinant FMS; assay type: biochemical; conditions: 33P-ATP, 120 min
# Chain of FMS (P07333 20-972, species assumed): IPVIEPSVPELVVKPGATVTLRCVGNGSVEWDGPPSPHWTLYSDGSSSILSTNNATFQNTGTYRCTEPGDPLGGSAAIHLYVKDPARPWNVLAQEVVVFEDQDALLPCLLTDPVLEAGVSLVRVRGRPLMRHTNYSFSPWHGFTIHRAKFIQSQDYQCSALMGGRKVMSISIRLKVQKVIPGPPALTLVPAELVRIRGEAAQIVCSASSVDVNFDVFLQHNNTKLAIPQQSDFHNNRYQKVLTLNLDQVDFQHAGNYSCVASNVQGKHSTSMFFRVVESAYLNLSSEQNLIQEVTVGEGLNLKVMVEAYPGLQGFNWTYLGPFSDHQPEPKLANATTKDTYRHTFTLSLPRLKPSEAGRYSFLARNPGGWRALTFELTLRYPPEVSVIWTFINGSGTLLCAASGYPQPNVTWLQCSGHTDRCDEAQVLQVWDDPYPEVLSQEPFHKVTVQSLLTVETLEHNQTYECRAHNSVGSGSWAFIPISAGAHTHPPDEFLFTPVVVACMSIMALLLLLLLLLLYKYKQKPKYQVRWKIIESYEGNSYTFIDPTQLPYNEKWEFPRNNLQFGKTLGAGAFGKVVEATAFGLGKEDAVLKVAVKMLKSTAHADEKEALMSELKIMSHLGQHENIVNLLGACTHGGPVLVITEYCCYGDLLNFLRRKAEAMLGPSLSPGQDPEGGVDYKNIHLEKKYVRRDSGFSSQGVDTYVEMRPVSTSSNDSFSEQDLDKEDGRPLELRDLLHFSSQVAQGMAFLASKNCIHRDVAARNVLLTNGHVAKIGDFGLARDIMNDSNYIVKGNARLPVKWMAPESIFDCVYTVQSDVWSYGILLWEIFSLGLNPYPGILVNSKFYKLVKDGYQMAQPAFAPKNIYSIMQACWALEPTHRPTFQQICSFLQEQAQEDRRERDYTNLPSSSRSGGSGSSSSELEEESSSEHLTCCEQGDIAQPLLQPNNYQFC
# Protocol: (§2) Compound (1289) inhibits activities of FMS, PDGFR α, PDGFR β and c-KIT in vitro. The kinase assays were performed with recombinant FMS, PDGFR α, PDGFR β and c-KIT proteins. Briefly, proteins, freshly prepared substrates and ^33P-ATP (specific activity 0.01 μCi/μl final) were mixed in reaction buffer (20 mM HEPES pH 7.5, 10 mM MgCl2, 1 mM EGTA, 0.02% Brij35, 0.02 mg/ml BSA, 0.1 mM Na3VO4, 2 mM DTT) in the presence of DMSO as control or compound (1289). The mixtures were reacted for 120 min at room temperature. Samples were transferred onto P81 ion exchange paper and filters were extensively washed with 0.75% phosphoric acid. The radioactivities were monitored.
# as §1
# [4] = target: PDGFR β (Homo sapiens, UniProt P09619); test: In vitro kinase assay, recombinant PDGFR β; assay type: biochemical; conditions: 33P-ATP, 120 min
# Chain of PDGFR β (P09619 33-1106, species assumed): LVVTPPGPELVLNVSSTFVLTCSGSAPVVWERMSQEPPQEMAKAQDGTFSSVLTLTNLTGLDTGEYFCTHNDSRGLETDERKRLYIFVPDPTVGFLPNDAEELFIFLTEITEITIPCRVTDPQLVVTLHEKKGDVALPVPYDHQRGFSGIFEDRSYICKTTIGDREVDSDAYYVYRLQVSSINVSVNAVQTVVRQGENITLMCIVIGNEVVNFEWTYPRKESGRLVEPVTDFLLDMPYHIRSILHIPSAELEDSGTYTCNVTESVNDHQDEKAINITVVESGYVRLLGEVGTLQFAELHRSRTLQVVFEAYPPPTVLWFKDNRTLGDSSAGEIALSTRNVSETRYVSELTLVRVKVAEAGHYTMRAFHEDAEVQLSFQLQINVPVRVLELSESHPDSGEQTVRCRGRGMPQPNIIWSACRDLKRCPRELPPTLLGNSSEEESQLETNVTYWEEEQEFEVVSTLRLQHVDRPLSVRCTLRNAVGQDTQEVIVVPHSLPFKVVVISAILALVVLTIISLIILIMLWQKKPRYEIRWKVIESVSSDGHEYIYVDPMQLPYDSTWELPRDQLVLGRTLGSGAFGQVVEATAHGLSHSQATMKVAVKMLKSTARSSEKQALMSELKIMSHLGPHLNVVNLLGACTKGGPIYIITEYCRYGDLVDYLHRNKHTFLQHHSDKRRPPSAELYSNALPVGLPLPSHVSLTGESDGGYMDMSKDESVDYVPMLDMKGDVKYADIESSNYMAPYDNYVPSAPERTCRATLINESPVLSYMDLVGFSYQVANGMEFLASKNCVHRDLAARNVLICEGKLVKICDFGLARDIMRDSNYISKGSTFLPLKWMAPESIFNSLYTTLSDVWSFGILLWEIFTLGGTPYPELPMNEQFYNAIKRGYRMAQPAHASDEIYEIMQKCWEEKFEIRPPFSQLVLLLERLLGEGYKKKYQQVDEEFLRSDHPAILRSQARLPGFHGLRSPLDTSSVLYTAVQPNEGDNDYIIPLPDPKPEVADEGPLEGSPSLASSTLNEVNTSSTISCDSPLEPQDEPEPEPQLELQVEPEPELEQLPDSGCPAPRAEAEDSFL
# Protocol: as §2, §1
# [5] = system: MV4-11 AML cells; test: MTS cell viability, MV4-11 AML cells (FLT3-ITD); assay type: cell-based, human; conditions: Homo sapiens, 48 h, read-out: IC50 for 50% inhibition of viability
# Protocol: (§3) MTS assays were performed for cell viability. Human cancer cells were seeded in 96-well plates (2500 cells/well for solid tumors, 5000 cells/well for blood tumors), incubated overnight at 37 C in 5% CO2, and exposed to 5IN-1NH1 or 5IN-1NH1s in a dose-dependent manner for 48 h. See FIGS. 1A-1B, 2A-2B, 3, 4A-4B, and 6A-6B. Dimethyl sulfoxide (DMSO) was used as the vehicle control. Viable cell numbers were determined by tetrazolium conversion to its formazan dye and absorbance was measured at 490 nm using an automated ELISA plate reader. Each experiment was performed in quadruplicate. IC50 values were determined using CalcuSyn software (BIOSOFT®, Cambridge GB).
# (§4) Compound (1289) inhibits viabilities of MV4-11 and MOLM13 AML cells that harbor an internal tandem duplication (ITD) mutation. MTS assays were performed for cell viability. Human MV4-11 and MOLM13 AML cells (5000/well) were seeded in 96-well plates, incubated overnight at 37° C. in 5% CO2, and exposed to compound (1289) in a dose-dependent manner for 48 h. Dimethyl sulfoxide (DMSO) was used as the vehicle control. Viable cell numbers were determined by tetrazolium conversion to its formazan dye and absorbance was measured at 490 nm using an automated ELISA plate reader. Each experiment was performed in quadruplicate. IC50 values were determined using CalcuSyn software.
# [6] = system: STAT5; test: Western blot, phosphorylation of STAT5 in AML cells; assay type: cell-based, human; conditions: FLT-ITD mutated AML cells (MV4-11, MOLM13), 4h
# Protocol: (§5) Western blot analyses were performed with specific antibodies. Briefly, human MV4-11 and MOLM13 AML cells were treated with compound (1289) in a dose-dependent manner for 4h. Whole-cell lysates (40 ug) were resolved by SDS-PAGE. Primary phospho-specific antibodies to p-Stat5 and […] were diluted in TBS (pH 7.5) with 5% (w/v) BSA and 0.1% (v/v) Tween-20 over night at 4° C. Primary specific antibodies to Stat5 and […] were diluted in PBS (pH 7.5) with 5% (w/v) nonfat milk and 0.1% (v/v) Tween-20 overnight at 4° C. Horseradish peroxidase-conjugated secondary antibodies were incubated in PBS (pH 7.5) with 5% (w/v) nonfat milk and 0.1% (v/v) Tween-20 for 1 h at room temperature. Positive immuno-reactive proteins were detected using the ECL system.
# [7] = target: FLT3 (Homo sapiens, UniProt P36888); test: In vitro kinase assay, recombinant FLT3; assay type: biochemical; conditions: recombinant FLT3, 33P-ATP, 120 min
# Protocol: as §1
# as §1, with “Kinase” for “The kinase”, “FLT3, mutated FLT3-ITD and D835I mutant FLT3 kinases.” for “class III receptor tyrosine kinase family proteins.”, “compound (1289).” for “5IN-1NH1s.”
# [8] = target: PDGFR α (Homo sapiens, UniProt P16234); test: In vitro kinase assay, recombinant PDGFR α; assay type: biochemical; conditions: 33P-ATP, 120 min
# Chain of PDGFR α (P16234 24-1089, species assumed): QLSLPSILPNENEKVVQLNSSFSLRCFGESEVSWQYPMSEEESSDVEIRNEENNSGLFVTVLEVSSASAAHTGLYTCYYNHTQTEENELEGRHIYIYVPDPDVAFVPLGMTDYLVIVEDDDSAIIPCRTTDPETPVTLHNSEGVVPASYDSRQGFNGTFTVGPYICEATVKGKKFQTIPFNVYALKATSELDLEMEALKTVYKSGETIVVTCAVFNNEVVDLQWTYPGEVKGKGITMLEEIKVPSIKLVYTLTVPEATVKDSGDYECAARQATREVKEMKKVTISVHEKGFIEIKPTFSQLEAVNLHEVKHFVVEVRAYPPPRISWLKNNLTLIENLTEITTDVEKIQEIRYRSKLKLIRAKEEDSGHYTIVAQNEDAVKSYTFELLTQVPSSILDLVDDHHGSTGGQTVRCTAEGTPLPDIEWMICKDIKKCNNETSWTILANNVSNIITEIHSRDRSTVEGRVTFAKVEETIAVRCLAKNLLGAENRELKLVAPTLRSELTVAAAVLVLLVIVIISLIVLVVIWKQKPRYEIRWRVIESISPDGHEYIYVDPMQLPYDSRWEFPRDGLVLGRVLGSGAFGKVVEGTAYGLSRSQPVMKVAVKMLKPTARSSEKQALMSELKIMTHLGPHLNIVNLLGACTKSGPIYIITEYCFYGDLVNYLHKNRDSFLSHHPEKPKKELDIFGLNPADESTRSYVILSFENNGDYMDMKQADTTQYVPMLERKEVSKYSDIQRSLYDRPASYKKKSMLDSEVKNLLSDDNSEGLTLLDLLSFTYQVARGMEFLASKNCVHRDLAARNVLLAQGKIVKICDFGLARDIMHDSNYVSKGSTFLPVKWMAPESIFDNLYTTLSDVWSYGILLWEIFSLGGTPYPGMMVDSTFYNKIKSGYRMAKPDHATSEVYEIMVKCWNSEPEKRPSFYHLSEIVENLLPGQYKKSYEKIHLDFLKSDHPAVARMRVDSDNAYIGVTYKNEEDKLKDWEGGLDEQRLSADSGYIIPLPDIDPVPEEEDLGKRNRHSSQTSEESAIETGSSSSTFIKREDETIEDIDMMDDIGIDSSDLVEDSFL
# Protocol: as §2, §1
# [9] = system: MV4-11 AML SQ xenografts; test: MV4-11 AML SQ xenografts in vivo; parameters: species or system mouse; conditions: NSG mice, 25 mg/kg orally twice daily for 18 days
# Protocol: Human MV4-11 AML cells (5×10^6) were resuspended in serum-free RPMI1640 medium and subcutaneously injected into the flank of 5-6 weeks old NOD/SCID/IL-2rg(ko) (NSG) female mouse. When palpable tumor sizes reached at approximately 100 mm^3, mice were randomly divided into two groups (vehicle=7, treatment=7). Then, compound (1289) was orally administered at 25 mg/kg with vehicle (10% DMSO+30% SOLUTOL®+60% Saline), twice daily for 18 days. Tumor volumes were calculated by the formula 1/2a×b^2, where a is the long diameter, and b is the short diameter. Tumor volumes correlate with tumor weights. The statistical significance of group differences was analyzed using a Student's t-test with the two-tailed distribution. P values less than 0.05 were considered statistically significant.
# [10] = system: MOLM13 AML cells; test: MTS cell viability, MOLM13 AML cells (FLT3-ITD); assay type: cell-based, human; conditions: Homo sapiens, MOLM-13, 48 h, read-out: IC50 for 50% inhibition of viability
# Protocol: as §3, §4
# [11] = system: Erk1/2; test: Western blot, phosphorylation of Erk1/2 in AML cells; assay type: cell-based, human; conditions: FLT-ITD mutated AML cells (MV4-11, MOLM13), 4h
# Protocol: as §5
# [12] = target: c-KIT (Homo sapiens, UniProt P10721); test: In vitro kinase assay, recombinant c-KIT; assay type: biochemical; conditions: 33P-ATP, 120 min
# Chain of c-KIT (P10721 26-976): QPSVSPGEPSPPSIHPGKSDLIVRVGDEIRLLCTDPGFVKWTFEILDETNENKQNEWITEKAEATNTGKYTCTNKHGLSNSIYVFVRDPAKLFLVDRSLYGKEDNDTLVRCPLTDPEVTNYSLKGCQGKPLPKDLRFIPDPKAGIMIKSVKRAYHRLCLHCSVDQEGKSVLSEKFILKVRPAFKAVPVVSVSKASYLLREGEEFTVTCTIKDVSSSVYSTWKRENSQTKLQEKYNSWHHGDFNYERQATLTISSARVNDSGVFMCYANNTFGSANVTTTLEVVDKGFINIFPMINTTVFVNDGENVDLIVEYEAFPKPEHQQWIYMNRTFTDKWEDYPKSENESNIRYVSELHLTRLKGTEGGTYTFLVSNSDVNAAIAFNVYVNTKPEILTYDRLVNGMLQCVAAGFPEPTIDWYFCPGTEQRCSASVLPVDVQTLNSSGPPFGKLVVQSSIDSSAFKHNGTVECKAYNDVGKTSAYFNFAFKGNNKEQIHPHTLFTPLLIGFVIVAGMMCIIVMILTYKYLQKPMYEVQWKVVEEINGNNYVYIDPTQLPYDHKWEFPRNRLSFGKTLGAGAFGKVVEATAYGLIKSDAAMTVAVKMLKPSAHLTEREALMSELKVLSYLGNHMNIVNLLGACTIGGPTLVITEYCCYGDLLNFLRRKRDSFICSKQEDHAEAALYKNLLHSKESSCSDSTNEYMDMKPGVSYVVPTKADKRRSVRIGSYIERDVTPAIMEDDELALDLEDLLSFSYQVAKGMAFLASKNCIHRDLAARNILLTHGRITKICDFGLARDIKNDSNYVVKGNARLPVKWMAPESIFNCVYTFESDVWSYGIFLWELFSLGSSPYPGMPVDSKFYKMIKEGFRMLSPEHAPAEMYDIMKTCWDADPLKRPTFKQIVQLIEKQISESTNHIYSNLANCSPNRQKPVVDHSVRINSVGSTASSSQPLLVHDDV
# Protocol: as §2, §1
smiles,measurement,setting,value
O=C1Nc2ccc(Br)cc2C1=C1Nc2ccccc2C1=NOCCN1CCNCC1 [Compound (1289)],IC50,[1],< 0.5 nM
same,IC50,[2],0.56 nM
same,IC50,[3],7.6 nM
same,IC50,[4],1.2 nM
same,IC50,[5],1.8 nM
same,phosphorylation of STAT5,[6],blocked phosphorylation
same,IC50,[7],0.68 nM
same,IC50,[8],13.6 nM
same,efficacy in vivo on MV4-11 AML SQ xenografts,[9],shows efficacy in vivo
same,IC50,[10],2.3 nM
same,phosphorylation of Erk1/2,[11],blocked phosphorylation
same,IC50,[12],47.7 nM
